Laboratory results taken from patent publication US8575197B2, “Pyrolinone derivative and pharmaceutical composition comprising the same” (Shionogi & Co., Ltd., priority 2008, dated 2013).

The compounds below were run against human P2X3 receptor (Homo sapiens (Human), UniProt P56373) (assay: P2X3 receptor inhibition, ATP-evoked Fluo-3 calcium fluorescence (FDSS 3000)). Details: C6BU-1 cell transfected with human P2X3 receptor gene; ATP-evoked Fluo-3 fluorescence.
Format: cell-based
In short: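 C6BU-1 cells stably transfected with human P2X3, loaded with 4 μM Fluo-3-AM for 1 h at 37 °C in HEPES buffer pH 7.5 with probenecid. Compound added 5 min before 40 nM ATP solution; fluorescence followed 3 min. IC50 from ratio of peak post-ATP to baseline fluorescence.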

human P2X3 receptor, sequence (P56373 whole entry): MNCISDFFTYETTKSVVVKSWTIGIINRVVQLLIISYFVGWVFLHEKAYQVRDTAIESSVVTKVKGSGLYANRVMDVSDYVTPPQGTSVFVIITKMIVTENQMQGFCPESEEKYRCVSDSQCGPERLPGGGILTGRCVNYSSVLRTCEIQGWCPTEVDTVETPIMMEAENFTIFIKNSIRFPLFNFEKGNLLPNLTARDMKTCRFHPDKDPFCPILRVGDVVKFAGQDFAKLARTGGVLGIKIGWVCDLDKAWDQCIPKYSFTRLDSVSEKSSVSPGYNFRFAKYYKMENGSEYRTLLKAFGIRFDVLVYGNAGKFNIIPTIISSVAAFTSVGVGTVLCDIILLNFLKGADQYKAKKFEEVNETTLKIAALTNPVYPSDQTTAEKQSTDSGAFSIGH

SMILES | IC50 [µM]
COc1ccccc1C1C(C(=O)c2ccco2)=C(O)C(=O)N1c1ccc(-c2ccsc2)cc1 (stereo not drawn) [Compound I-211] | 0.157
COc1ccccc1C1c2c(C3CC3)n[nH]c2C(=O)N1c1ccc(-c2ccsc2)cc1 (stereo not drawn) [II-083] | 0.024
CC(C)C(=O)C1=C(O)C(=O)N(c2ccc(-c3ccsc3)cc2)C1c1ccccc1OCCN(C)C (stereo not drawn) [Compound I-157] | 0.025
COCCOc1cc(F)ccc1C1C(C(=O)C(C)C)=C(O)C(=O)N1c1ccc(-c2ccoc2)cc1 (stereo not drawn) [Compound I-367] | 0.019
CNC(=O)COc1ccccc1C1C(C(=O)C(C)(C)C)=C(O)C(=O)N1c1ccc(-c2ccon2)cc1 (stereo not drawn) [Compound I-146] | 0.727
COc1ccccc1C1C(C(=O)C(F)(F)F)=C(O)C(=O)N1c1ccc(-c2ccon2)cc1 (stereo not drawn) [Compound I-010] | 0.595
CSc1ccc(N2C(=O)C(O)=C(C(=O)C(C)C)C2c2ccccc2OCC2CCOCC2)cc1 (stereo not drawn) [Compound I-591] | 0.031
COCCCOc1ccccc1C1C(C(=O)CC(C)C)=C(O)C(=O)N1c1ccc(-c2noc(C)n2)cc1 (stereo not drawn) [Compound I-492] | 0.104
CC(C)(C)c1n[nH]c2c1C(c1cccc[n+]1[O-])N(c1ccc(-c3ccsc3)cc1)C2=O (stereo not drawn) [II-074] | 0.032
COCCCOc1ncccc1C1C(C(=O)C(C)C)=C(O)C(=O)N1c1ccc(-c2ccc(C)s2)cc1 (stereo not drawn) [Compound I-569] | 0.035
COc1cc(N2C(=O)c3[nH]nc(C(C)C)c3C2c2ccccc2OC)ccc1-c1ccsc1 (stereo not drawn) [II-235] | 0.017
CC(C)CC(=O)C1=C(O)C(=O)N(c2ccc(-c3ccsc3)cc2)C1c1ccccc1N1CCOCC1 (stereo not drawn) [Compound I-442] | 0.005
O=C1C(O)=C(S(=O)(=O)c2ccccc2)C(C2CCCCC2)N1c1ccc(-c2ccon2)cc1 (stereo not drawn) [Compound I-482] | 0.333
Cc1cc(-c2ccc(N3C(=O)C(O)=C(C(=O)C(C)C)C3c3ccccc3OC(C)C)cc2)cs1 (stereo not drawn) [Compound I-419] | 0.032
CNC(=O)COc1ccccc1C1C(C(=O)C(C)(C)C)=C(O)C(=O)N1c1ccc(-c2ccsc2)cc1 (stereo not drawn) [Compound I-147] | 0.017
Cc1ccc(-c2ccc(N3C(=O)C(O)=C(C(=O)CC(C)C)C3c3ccccc3OC(F)F)cc2)s1 (stereo not drawn) [Compound I-337] | 0.103
CNC(=O)CCc1ccccc1C1C(C(=O)C(C)C)=C(O)C(=O)N1c1ccc(-c2noc(C)n2)cc1 (stereo not drawn) [Compound I-593] | 0.811
Cc1nc(-c2ccc(N3C(=O)C(O)=C(C(=O)CC(C)C)C3c3ccccc3N3CCOCC3)cc2)no1 (stereo not drawn) [Compound I-488] | 0.067
Cc1ccc(-c2ccc(N3C(=O)C(O)=C(C(=O)CC(C)C)C3c3cccnc3C(=O)NCCN(C)C)cc2)s1 (stereo not drawn) [Compound I-583] | 0.01
Cc1ccc(-c2ccc(N3C(=O)C(O)=C(C(=O)CC(C)C)C3c3cccnc3C(=O)NN(C)C)cc2)s1 (stereo not drawn) [Compound I-576] | 0.237
COCCCOc1ccccc1C1C(C(=O)C(C)C)=C(O)C(=O)N1c1ccc(-c2ccsc2)cc1 (stereo not drawn) [Compound I-489] | 0.006
CC(C)C(=O)C1=C(O)C(=O)N(c2ccc(-c3cccs3)cc2)C1c1cccnc1OCCO (stereo not drawn) [Compound I-229] | 0.029
COc1ccccc1C1C(C(=O)C(C)(C)CO)=C(O)C(=O)N1c1ccc(SC)cc1 (stereo not drawn) [Compound I-068] | 0.305
COCc1ccccc1C1C(C(=O)C(C)C)=C(O)C(=O)N1c1ccc(-c2ccco2)cc1 (stereo not drawn) [Compound I-354] | 0.057
Cc1ccc(-c2ccc(N3C(=O)C(O)=C(C(=O)C(C)C)C3c3ccccc3CC(=O)N(C)C)cc2)o1 (stereo not drawn) [Compound I-493] | 0.105
COCCOc1ncccc1C1c2c(C(C)(C)C)n[nH]c2C(=O)N1c1ccc(-c2ccsc2)cc1 (stereo not drawn) [II-032] | 0.006
Cc1cc(-c2ccc(N3C(=O)C(O)=C(C(=O)C(C)C)C3c3ccccc3C(=O)N(C)CCO)cc2)cs1 (stereo not drawn) [Compound I-584] | 0.167

SMILES | IC50 [µM]
COc1ccccc1C1c2c(C(C)(C)CO)n[nH]c2C(=O)N1c1ccc(SC)cc1 (stereo not drawn) [II-009] | 0.054
Cc1ccc(-c2ccc(N3C(=O)C(O)=C(C(=O)CC(C)C)C3c3cccnc3C(=O)OC(C)C)cc2)s1 (stereo not drawn) [Compound I-504] | 0.238
COc1ncccc1C1c2c(C(C)(C)C)n[nH]c2C(=O)N1c1ccc(-c2cccs2)nc1 (stereo not drawn) [II-270] | 0.025
COC(=O)COc1ccccc1C1c2c(C(C)(C)C)n[nH]c2C(=O)N1c1ccc(-c2ccon2)cc1 (stereo not drawn) [II-028] | 0.014
Cc1cc(-c2ccc(N3C(=O)C(O)=C(C(=O)C(C)C)C3c3ccccc3OCCO)cc2)cs1 (stereo not drawn) [Compound I-256] | 0.023
COc1ccc(C(=O)C2=C(O)C(=O)N(c3ccc(C4=NCCS4)cc3)C2c2ccccc2OC)cc1 (stereo not drawn) [Compound I-028] | 0.075
COCOc1ccccc1C1C(C(=O)C(C)C)=C(O)C(=O)N1c1ccc(-c2csc(C)c2)cc1 (stereo not drawn) [Compound I-262] | 0.016
Cc1nc(-c2ccc(N3C(=O)C(O)=C(C(=O)CC(C)C)C3c3ccccc3OCCO)cc2)no1 (stereo not drawn) [Compound I-278] | 0.366
CC(C)Oc1ccccc1C1C(C(=O)C(C)C)=C(O)C(=O)N1c1ccc(-c2ccsc2)cc1 (stereo not drawn) [Compound I-299] | 0.008
Cc1nc(-c2ccc(N3C(=O)C(O)=C(C(=O)C(C)C)C3c3ccccc3OC3CCOCC3)cc2)no1 (stereo not drawn) [Compound I-502] | 0.067
COc1ccccc1C1c2c(C(C)C)n[nH]c2C(=O)N1c1ccc(-c2ccsc2)c(N)c1 (stereo not drawn) [II-240] | 0.116
CCN(C)C(=O)c1ccccc1C1C(C(=O)C(C)C)=C(O)C(=O)N1c1ccc(-c2csc(C)c2)cc1 (stereo not drawn) [Compound I-494] | 0.053
COCc1ncccc1C1c2c(C(C)C)n[nH]c2C(=O)N1c1ccc(-c2ccsc2)cc1 (stereo not drawn) [II-133] | 0.116
COc1ccccc1C1c2c(C(C)(C)C)n[nH]c2C(=O)N1c1ccc(SC)cc1 (stereo not drawn) [II-201] | 0.033
COc1ncccc1C1c2c(C(C)(C)C)n[nH]c2C(=O)N1c1ccc(-c2ccoc2)cn1 (stereo not drawn) [II-261] | 0.14
COCc1ccccc1C1C(C(=O)CC(C)C)=C(O)C(=O)N1c1ccc(-c2ccc(C)s2)cc1 (stereo not drawn) [Compound I-303] | 0.031
CCc1nc2cc(N3C(=O)C(O)=C(C(=O)C(C)C)C3c3ccccc3OC(C)C)ccc2o1 (stereo not drawn) [Compound I-464] | 0.453
COc1ccccc1C1c2c(C(C)(C)C)n[nH]c2C(=O)N1c1ccc(-c2ccoc2)nc1 (stereo not drawn) [II-253] | 0.02
CSc1ccc(N2C(=O)C(O)=C(C(=O)CC(C)C)C2c2ccccc2OCC#N)cc1 (stereo not drawn) [Compound I-511] | 0.117
CC(C)(C)c1n[nH]c2c1C(c1ccccc1C(=O)O)N(c1ccc(-c3ccsc3)cc1)C2=O (stereo not drawn) [II-131] | 0.088
CNC(=O)COc1ccccc1C1c2c(C(C)(C)C)n[nH]c2C(=O)N1c1ccc(-c2ccon2)cc1 (stereo not drawn) [II-077] | 0.237
COc1ccc(C(=O)C2=C(O)C(=O)N(c3ccc(-c4ccon4)cc3)C2c2ccc(Br)cc2OC)cc1 (stereo not drawn) [Compound I-131] | 0.251
Cc1ccc(-c2ccc(N3C(=O)C(O)=C(C(=O)C(C)C)C3c3ccccc3OC(C)C)cc2)o1 (stereo not drawn) [Compound I-396] | 0.007
CN(C)c1ccccc1C1C(C(=O)C(C)(C)C)=C(O)C(=O)N1c1ccc(-c2ccon2)cc1 (stereo not drawn) [Compound I-070] | 0.519
COc1ccccc1C1C(C(=O)C(C)C)=C(O)C(=O)N1c1ccc(-c2ccsc2)c(O)c1 (stereo not drawn) [Compound I-240] | 0.185
CC(C)c1n[nH]c2c1C(c1ccccc1CO)N(c1ccc(-c3ccsc3)cc1)C2=O (stereo not drawn) [II-086] | 0.032
COc1ncccc1C1c2c(C(C)(C)C)n[nH]c2C(=O)N1c1ccc(-c2ccsc2)nc1 (stereo not drawn) [II-268] | 0.024
